# Laboratory results reported in ChEMBL document CHEMBL4507299, “Data for DCP probe PF-04554878” (2021).
# Legend:
# [1] = molecular target: 5-hydroxytryptamine receptor 2A (Homo sapiens) (UniProt P28223); details: Compound concentration 10.0 uM
# [2] = molecular target: Hormonally up-regulated neu tumor-associated kinase (Homo sapiens) (UniProt P57058)
# [3] = molecular target: Ribosomal protein S6 kinase alpha-1 (Homo sapiens) (UniProt Q15418)
# [4] = molecular target: Homeodomain-interacting protein kinase 4 (Homo sapiens) (UniProt Q8NE63)
# [5] = molecular target: Mitogen-activated protein kinase kinase kinase 20 (Homo sapiens) (UniProt Q9NYL2)
# [6] = molecular target: MAP kinase-interacting serine/threonine-protein kinase 1 (Homo sapiens) (UniProt Q9BUB5)
# [7] = molecular target: NT-3 growth factor receptor (Homo sapiens) (UniProt Q16288)
# [8] = molecular target: Dual specificity mitogen-activated protein kinase kinase 5 (Homo sapiens) (UniProt Q13163)
# [9] = molecular target: Rhodopsin kinase GRK7 (Homo sapiens) (UniProt Q8WTQ7)
# [10] = molecular target: Serine/threonine-protein kinase TNNI3K (Homo sapiens) (UniProt Q59H18)
# [11] = molecular target: Cyclin-dependent kinase 18 (Homo sapiens) (UniProt Q07002)
# [12] = molecular target: 3-phosphoinositide-dependent protein kinase 1 (Homo sapiens) (UniProt O15530)
# [13] = molecular target: Mitotic checkpoint serine/threonine-protein kinase BUB1 (Homo sapiens) (UniProt O43683)
# [14] = molecular target: Alpha-1D adrenergic receptor (Homo sapiens) (UniProt P25100); details: Compound concentration 10.0 uM
# [15] = molecular target: Mitogen-activated protein kinase kinase kinase 11 (Homo sapiens) (UniProt Q16584)
# [16] = molecular target: Serine/threonine-protein kinase tousled-like 1 (Homo sapiens) (UniProt Q9UKI8)
# [17] = test system: Phosphatidylinositol 4,5-bisphosphate 3-kinase catalytic subunit alpha isoform (Homo sapiens), P42336 [C420R]
# [18] = molecular target: Serine/threonine-protein kinase MARK1 (Homo sapiens, UniProt Q9P0L2)
# [19] = molecular target: High affinity nerve growth factor receptor (Homo sapiens) (UniProt P04629)
# [20] = molecular target: Protein kinase C iota type (Homo sapiens) (UniProt P41743)
# [21] = molecular target: Serine/threonine-protein kinase WNK4 (Homo sapiens) (UniProt Q96J92)
# [22] = molecular target: Inhibitor of nuclear factor kappa-B kinase subunit alpha (Homo sapiens) (UniProt O15111)
# [23] = molecular target: Mast/stem cell growth factor receptor Kit (Homo sapiens) (UniProt P10721)
# [24] = molecular target: Proto-oncogene tyrosine-protein kinase receptor Ret (Homo sapiens) (UniProt P07949)
# [25] = molecular target: Calcium/calmodulin-dependent protein kinase type 1G (Homo sapiens) (UniProt Q96NX5)
# [26] = molecular target: LIM domain kinase 2 (Homo sapiens) (UniProt P53671)
# [27] = molecular target: Serine/threonine-protein kinase Nek4 (Homo sapiens) (UniProt P51957)
# [28] = molecular target: Serine/threonine-protein kinase Nek6 (Homo sapiens) (UniProt Q9HC98)
# [29] = molecular target: Serine/threonine-protein kinase MRCK alpha (Homo sapiens) (UniProt Q5VT25)
# [30] = test system: eIF-2-alpha kinase GCN2 (Homo sapiens), Q9P2K8 [S808G]
# [31] = molecular target: Eukaryotic translation initiation factor 2-alpha kinase 1 (Homo sapiens) (UniProt Q9BQI3)
# [32] = molecular target: Cyclin-G-associated kinase (Homo sapiens) (UniProt O14976)
# [33] = molecular target: G protein-coupled receptor kinase 4 (Homo sapiens) (UniProt P32298)
# [34] = molecular target: Death-associated protein kinase 1 (Homo sapiens) (UniProt P53355)
# [35] = molecular target: Serine/threonine-protein kinase tousled-like 2 (Homo sapiens) (UniProt Q86UE8)
# [36] = molecular target: Serine/threonine-protein kinase 17B (Homo sapiens) (UniProt O94768)
# [37] = molecular target: Cyclin-dependent kinase 16 (Homo sapiens) (UniProt Q00536)
# [38] = molecular target: Serine/threonine-protein kinase PAK 1 (Homo sapiens) (UniProt Q13153)
# [39] = molecular target: Dual specificity mitogen-activated protein kinase kinase 6 (Homo sapiens) (UniProt P52564)
# [40] = test system: Mast/stem cell growth factor receptor Kit (Homo sapiens), P10721 [D816H]
# [41] = molecular target: Bone morphogenetic protein receptor type-2 (Homo sapiens) (UniProt Q13873)
# [42] = molecular target: STE20/SPS1-related proline-alanine-rich protein kinase (Homo sapiens) (UniProt Q9UEW8)
# [43] = molecular target: Serine/threonine-protein kinase DCLK1 (Homo sapiens) (UniProt O15075)
# [44] = molecular target: Phosphatidylinositol 3-kinase catalytic subunit type 3 (Homo sapiens) (UniProt Q8NEB9)
# [45] = molecular target: Serine/threonine-protein kinase RIO1 (Homo sapiens) (UniProt Q9BRS2)
# [46] = Compound concentration 100.0 nM
# [47] = Compound concentration 1000.0 nM
# Sequence of NT-3 growth factor receptor (Homo sapiens) (Q16288 32-839 limits assumed): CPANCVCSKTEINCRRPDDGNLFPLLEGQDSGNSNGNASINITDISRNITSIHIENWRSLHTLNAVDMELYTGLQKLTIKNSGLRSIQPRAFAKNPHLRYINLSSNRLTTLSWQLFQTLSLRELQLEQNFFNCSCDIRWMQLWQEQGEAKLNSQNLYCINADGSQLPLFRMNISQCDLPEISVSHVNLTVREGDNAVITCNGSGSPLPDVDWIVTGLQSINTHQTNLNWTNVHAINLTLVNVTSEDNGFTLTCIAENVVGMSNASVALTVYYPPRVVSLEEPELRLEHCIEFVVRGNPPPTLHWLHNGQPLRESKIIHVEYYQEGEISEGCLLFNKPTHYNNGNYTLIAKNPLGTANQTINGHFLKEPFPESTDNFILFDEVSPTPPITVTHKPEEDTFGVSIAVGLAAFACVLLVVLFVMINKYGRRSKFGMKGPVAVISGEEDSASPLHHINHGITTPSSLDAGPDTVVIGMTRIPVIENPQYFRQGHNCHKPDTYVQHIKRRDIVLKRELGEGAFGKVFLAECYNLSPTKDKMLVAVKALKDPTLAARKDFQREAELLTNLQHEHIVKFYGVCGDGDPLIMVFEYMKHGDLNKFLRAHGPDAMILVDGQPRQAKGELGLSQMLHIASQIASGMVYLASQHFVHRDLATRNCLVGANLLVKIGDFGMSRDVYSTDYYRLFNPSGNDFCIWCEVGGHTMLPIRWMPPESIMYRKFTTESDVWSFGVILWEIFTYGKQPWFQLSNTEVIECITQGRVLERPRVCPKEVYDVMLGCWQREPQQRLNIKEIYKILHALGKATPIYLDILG
# Sequence of Dual specificity mitogen-activated protein kinase kinase 6 (Homo sapiens) (P52564 whole entry): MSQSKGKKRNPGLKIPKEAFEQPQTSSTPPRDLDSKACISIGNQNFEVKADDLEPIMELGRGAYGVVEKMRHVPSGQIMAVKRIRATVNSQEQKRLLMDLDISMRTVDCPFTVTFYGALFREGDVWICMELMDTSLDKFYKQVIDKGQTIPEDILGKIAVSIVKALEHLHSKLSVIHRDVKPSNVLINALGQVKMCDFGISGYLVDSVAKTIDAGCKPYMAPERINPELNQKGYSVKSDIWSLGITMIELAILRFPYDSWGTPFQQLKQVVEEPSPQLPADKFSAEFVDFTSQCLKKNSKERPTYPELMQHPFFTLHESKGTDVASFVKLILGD
# Sequence of Mast/stem cell growth factor receptor Kit (Homo sapiens), P10721 [D816H] (P10721 whole entry D816H): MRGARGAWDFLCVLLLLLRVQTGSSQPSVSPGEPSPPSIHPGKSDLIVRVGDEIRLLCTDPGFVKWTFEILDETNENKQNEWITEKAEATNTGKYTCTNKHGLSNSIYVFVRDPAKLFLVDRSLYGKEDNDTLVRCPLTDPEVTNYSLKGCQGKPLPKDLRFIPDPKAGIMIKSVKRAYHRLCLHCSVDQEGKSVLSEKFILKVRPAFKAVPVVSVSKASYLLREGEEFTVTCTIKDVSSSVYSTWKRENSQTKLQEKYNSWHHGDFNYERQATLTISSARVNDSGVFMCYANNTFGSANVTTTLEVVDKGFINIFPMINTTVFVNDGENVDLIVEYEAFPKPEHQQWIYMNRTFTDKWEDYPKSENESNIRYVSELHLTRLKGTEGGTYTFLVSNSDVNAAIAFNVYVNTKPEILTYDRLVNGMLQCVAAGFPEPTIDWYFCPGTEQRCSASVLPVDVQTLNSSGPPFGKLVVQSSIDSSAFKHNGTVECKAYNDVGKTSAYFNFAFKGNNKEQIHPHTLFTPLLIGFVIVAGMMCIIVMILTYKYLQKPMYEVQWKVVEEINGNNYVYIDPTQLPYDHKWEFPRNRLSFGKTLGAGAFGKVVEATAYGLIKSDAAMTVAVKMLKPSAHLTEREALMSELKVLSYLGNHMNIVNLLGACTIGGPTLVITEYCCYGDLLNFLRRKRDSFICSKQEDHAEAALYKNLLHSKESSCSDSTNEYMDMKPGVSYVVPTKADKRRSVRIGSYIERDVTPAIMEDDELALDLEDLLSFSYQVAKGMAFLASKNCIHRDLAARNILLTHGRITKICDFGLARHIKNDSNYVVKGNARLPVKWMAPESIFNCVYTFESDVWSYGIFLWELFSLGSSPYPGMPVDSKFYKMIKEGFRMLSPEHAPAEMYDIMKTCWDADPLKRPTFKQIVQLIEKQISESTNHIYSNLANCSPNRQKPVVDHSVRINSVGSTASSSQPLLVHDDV
# Sequence of Serine/threonine-protein kinase Nek4 (Homo sapiens) (P51957 whole entry, looked up): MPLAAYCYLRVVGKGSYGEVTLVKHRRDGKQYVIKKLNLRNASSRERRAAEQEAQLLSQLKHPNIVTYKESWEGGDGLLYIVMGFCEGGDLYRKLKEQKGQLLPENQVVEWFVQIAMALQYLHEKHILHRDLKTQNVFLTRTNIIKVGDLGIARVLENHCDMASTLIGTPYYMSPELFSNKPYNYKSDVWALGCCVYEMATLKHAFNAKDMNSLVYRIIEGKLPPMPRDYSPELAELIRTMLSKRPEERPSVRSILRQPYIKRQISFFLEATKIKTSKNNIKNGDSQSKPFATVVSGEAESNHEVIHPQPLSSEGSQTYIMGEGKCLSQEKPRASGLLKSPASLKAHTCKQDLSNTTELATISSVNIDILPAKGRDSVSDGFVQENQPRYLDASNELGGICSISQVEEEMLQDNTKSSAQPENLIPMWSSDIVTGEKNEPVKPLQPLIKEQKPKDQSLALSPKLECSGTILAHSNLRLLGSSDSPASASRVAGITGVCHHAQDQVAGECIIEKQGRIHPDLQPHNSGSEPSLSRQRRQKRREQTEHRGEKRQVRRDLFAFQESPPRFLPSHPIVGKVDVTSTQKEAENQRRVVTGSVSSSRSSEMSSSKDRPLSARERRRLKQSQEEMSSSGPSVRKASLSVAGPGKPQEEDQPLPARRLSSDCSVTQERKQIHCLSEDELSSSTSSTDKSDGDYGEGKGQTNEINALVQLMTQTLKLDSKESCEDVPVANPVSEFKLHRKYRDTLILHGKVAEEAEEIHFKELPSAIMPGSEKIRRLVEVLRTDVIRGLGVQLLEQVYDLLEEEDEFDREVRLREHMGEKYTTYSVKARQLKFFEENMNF
# Sequence of Serine/threonine-protein kinase PAK 1 (Homo sapiens) (Q13153 whole entry): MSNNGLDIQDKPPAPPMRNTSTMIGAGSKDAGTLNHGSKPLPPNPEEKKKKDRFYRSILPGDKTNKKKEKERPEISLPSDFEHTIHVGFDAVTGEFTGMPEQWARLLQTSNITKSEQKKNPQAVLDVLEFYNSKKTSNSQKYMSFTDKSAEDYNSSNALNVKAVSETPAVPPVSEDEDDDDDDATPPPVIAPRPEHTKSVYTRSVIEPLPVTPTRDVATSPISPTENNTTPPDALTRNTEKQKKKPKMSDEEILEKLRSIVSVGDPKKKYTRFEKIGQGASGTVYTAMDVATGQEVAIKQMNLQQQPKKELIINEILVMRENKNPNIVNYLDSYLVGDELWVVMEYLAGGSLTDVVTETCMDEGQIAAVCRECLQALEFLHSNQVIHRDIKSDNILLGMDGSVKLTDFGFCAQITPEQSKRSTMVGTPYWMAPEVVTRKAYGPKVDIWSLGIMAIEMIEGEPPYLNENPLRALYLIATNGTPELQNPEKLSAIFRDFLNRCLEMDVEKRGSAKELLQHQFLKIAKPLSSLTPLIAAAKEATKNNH
# Sequence of Serine/threonine-protein kinase tousled-like 2 (Homo sapiens) (Q86UE8 whole entry, looked up): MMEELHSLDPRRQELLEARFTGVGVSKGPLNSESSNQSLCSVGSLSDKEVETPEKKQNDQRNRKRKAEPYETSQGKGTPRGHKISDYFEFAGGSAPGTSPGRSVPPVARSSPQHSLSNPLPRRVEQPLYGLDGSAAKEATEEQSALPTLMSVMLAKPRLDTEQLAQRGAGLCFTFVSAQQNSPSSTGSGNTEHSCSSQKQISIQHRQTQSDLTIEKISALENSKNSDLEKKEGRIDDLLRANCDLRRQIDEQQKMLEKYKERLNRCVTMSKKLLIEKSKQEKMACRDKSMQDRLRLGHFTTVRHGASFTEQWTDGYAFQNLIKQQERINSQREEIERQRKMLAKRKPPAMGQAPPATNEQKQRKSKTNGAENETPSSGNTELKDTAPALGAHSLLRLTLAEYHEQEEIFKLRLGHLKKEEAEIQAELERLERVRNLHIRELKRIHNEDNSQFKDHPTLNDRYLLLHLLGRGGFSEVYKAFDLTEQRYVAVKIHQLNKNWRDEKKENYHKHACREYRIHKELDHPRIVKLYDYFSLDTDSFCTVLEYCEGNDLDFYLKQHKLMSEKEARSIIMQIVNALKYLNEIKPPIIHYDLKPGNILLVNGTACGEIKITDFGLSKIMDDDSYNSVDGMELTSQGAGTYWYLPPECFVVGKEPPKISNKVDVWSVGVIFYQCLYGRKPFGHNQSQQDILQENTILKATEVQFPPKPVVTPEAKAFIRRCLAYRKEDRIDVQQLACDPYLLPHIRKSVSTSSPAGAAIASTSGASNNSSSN
# Sequence of Serine/threonine-protein kinase RIO1 (Homo sapiens) (Q9BRS2 whole entry): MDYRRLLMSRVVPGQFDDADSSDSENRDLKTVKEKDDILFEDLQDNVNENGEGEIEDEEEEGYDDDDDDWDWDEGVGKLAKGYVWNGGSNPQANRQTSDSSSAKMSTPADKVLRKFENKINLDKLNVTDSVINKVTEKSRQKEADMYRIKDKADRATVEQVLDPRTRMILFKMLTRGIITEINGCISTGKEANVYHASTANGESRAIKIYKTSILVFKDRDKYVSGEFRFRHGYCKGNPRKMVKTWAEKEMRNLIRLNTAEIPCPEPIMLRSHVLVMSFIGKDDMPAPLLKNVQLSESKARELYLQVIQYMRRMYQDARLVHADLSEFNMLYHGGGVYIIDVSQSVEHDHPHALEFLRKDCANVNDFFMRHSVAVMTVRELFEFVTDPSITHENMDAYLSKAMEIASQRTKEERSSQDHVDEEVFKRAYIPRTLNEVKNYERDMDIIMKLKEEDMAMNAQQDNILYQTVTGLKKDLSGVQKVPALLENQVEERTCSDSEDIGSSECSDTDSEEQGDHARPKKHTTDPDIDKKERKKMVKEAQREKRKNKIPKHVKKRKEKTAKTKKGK
# Sequence of Mast/stem cell growth factor receptor Kit (Homo sapiens) (P10721 whole entry): as the sequence (P10721 whole entry D816H) above, with H816D counted along it
smiles,measurement,setting,value
CNC(=O)c1ccc(Nc2ncc(C(F)(F)F)c(NCc3nccnc3N(C)S(C)(=O)=O)n2)cc1 [DEFACTINIB],inhibition,[1],0.93%
same,residual activity,[2]; [46],100%
same,residual activity,[3]; [46],100%
same,residual activity,[4]; [46],54%
same,residual activity,[5]; [46],100%
same,residual activity,[6]; [46],83%
same,residual activity,[7]; [46],41%
same,residual activity,[8]; [46],89%
same,residual activity,[9]; [46],97%
same,residual activity,[10]; [46],100%
same,residual activity,[11]; [46],68%
same,residual activity,[12]; [46],81%
same,residual activity,[13]; [46],100%
same,inhibition,[14],4.13%
same,residual activity,[15]; [46],35%
same,residual activity,[16]; [46],73%
same,residual activity,[17]; [46],100%
same,residual activity,[18]; [46],100%
same,residual activity,[19]; [46],13%
same,residual activity,[20]; [46],84%
same,residual activity,[21]; [46],81%
same,residual activity,[22]; [46],98%
same,residual activity,[23]; [46],100%
same,residual activity,[24]; [46],60%
same,residual activity,[25]; [46],89%
same,residual activity,[26]; [46],87%
same,residual activity,[27]; [46],76%
same,residual activity,[28]; [46],81%
same,residual activity,[29]; [46],98%
same,residual activity,[30]; [46],27%
same,residual activity,[31]; [46],85%
same,residual activity,[32]; [46],69%
same,residual activity,[33]; [46],98%
same,residual activity,[34]; [46],82%
same,residual activity,[35]; [46],90%
same,residual activity,[36]; [46],100%
same,residual activity,[37]; [46],99%
same,residual activity,[38]; [46],75%
same,residual activity,[39]; [46],77%
same,residual activity,[40]; [46],71%
same,residual activity,[41]; [46],91%
same,residual activity,[42]; [46],100%
same,residual activity,[43]; [46],99%
same,residual activity,[44]; [46],100%
same,residual activity,[45]; [46],100%
CN(c1ccnc(CNc2nc(Nc3ccc4c(c3)CC(=O)N4)ncc2C(F)(F)F)n1)S(C)(=O)=O [PF-00911705],inhibition,[1],4.75%
same,residual activity,[2]; [47],100%
same,residual activity,[3]; [47],100%
same,residual activity,[4]; [47],35%
same,residual activity,[5]; [47],100%
same,residual activity,[6]; [47],45%
same,residual activity,[7]; [47],45%
same,residual activity,[8]; [47],48%
same,residual activity,[9]; [47],29%
same,residual activity,[10]; [47],73%
same,residual activity,[11]; [47],100%
same,residual activity,[12]; [47],54%
same,residual activity,[13]; [47],91%
same,inhibition,[14],15.9%
same,residual activity,[15]; [47],32%
same,residual activity,[16]; [47],79%
same,residual activity,[17]; [47],91%
same,residual activity,[18]; [47],77%
same,residual activity,[19]; [47],10%
same,residual activity,[20]; [47],55%
same,residual activity,[21]; [47],0%
same,residual activity,[22]; [47],57%
same,residual activity,[23]; [47],52%
same,residual activity,[24]; [47],49%
same,residual activity,[25]; [47],95%
same,residual activity,[26]; [47],94%
same,residual activity,[27]; [47],84%
same,residual activity,[28]; [47],84%
same,residual activity,[29]; [47],80%
same,residual activity,[30]; [47],6.7%
same,residual activity,[31]; [47],87%
same,residual activity,[32]; [47],66%
same,residual activity,[33]; [47],10%
same,residual activity,[34]; [47],15%
same,residual activity,[35]; [47],100%
same,residual activity,[36]; [47],48%
same,residual activity,[37]; [47],82%
same,residual activity,[38]; [47],73%
same,residual activity,[39]; [47],83%
same,residual activity,[40]; [47],44%
same,residual activity,[41]; [47],60%
same,residual activity,[42]; [47],100%
same,residual activity,[43]; [47],57%
same,residual activity,[44]; [47],84%
same,residual activity,[45]; [47],9.7%
